The values that follow come from PMC3445516 (PLoS ONE, 2012).

Common to all, as to assay: Ambit kinase profiling, competition binding
The target of one assay is T1, PKC ε (Homo sapiens, UniProt Q02156).
T1 construct: purchased Ambit Biosciences (KINOMEscan)
T1 sequence (Q02156 1-737): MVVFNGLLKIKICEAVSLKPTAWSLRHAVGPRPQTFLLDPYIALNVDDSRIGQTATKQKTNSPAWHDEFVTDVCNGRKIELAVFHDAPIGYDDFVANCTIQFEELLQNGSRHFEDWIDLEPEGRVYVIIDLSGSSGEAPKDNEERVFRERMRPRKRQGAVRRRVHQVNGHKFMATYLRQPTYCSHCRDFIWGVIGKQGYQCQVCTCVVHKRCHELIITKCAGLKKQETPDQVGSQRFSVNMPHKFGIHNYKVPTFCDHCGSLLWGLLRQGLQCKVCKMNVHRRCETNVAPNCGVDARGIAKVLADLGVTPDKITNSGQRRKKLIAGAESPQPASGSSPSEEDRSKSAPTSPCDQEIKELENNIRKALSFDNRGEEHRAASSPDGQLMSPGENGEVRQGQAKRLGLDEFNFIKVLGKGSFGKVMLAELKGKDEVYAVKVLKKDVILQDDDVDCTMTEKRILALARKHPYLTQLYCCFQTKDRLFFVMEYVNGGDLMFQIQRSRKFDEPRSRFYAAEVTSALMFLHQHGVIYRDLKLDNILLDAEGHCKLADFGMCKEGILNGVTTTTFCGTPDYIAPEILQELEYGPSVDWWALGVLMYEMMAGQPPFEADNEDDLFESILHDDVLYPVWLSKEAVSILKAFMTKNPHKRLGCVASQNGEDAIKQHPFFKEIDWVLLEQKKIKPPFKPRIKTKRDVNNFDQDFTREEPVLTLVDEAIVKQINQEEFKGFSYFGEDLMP
The settings on record: for competition: PKC ε, 10 µM. The method, then: (§1) Also included in the kinase profile are four isoforms of PKC (δ, ε, η, θ) and eight isoforms of CAMKs (CAMKIα, δ, γ; CAMKIIα, β, δ, γ; CAMK4).
(§2) The global kinase profiling experiment was performed by Ambit Biosciences.

A further assay addresses T2, BRAF (Homo sapiens, UniProt P15056).
T2 construct: purchased Ambit Biosciences (KINOMEscan)
Here is the method:
as §1, §2

Another assay addresses T3, CLK4 (Homo sapiens, UniProt Q9HAZ1).
T3 construct: purchased Ambit Biosciences (KINOMEscan)
The method, then: as §1, §2

The target of the next assay is T4, EPHA6 (Homo sapiens, UniProt Q9UF33).
T4 construct: purchased Ambit Biosciences (KINOMEscan)
T4 sequence (Q9UF33 23-1036): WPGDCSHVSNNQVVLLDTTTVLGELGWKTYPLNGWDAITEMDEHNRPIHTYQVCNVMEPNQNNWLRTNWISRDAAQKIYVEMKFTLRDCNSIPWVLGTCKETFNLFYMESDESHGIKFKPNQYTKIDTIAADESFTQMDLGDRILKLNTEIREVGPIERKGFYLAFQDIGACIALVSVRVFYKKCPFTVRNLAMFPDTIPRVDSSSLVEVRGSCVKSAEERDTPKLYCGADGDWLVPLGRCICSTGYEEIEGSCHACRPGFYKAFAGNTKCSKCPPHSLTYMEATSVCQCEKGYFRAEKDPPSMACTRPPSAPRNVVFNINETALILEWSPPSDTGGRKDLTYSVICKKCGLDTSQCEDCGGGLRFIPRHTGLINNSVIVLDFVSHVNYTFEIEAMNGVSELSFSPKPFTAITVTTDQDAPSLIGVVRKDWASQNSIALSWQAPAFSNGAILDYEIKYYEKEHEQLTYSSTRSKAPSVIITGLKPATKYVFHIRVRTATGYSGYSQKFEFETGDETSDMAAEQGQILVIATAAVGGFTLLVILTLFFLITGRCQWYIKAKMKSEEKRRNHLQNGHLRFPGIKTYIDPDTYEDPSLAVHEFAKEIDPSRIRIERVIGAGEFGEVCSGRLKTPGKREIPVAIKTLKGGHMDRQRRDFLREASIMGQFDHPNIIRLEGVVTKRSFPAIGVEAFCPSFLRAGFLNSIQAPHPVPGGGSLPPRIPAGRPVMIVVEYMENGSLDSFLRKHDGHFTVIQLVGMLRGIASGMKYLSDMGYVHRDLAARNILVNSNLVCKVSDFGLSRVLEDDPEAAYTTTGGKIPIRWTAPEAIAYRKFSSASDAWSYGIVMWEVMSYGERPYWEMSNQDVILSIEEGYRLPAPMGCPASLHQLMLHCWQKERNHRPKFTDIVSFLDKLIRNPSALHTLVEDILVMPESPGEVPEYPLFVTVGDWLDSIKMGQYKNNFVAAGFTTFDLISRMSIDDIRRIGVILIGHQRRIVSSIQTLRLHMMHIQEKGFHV
Here is the method:
as §1, §2

For the next assay, the target named is T5, TAOK1 (Homo sapiens, UniProt Q7L7X3).
T5 construct: purchased Ambit Biosciences (KINOMEscan)
T5 sequence (Q7L7X3 1-1001): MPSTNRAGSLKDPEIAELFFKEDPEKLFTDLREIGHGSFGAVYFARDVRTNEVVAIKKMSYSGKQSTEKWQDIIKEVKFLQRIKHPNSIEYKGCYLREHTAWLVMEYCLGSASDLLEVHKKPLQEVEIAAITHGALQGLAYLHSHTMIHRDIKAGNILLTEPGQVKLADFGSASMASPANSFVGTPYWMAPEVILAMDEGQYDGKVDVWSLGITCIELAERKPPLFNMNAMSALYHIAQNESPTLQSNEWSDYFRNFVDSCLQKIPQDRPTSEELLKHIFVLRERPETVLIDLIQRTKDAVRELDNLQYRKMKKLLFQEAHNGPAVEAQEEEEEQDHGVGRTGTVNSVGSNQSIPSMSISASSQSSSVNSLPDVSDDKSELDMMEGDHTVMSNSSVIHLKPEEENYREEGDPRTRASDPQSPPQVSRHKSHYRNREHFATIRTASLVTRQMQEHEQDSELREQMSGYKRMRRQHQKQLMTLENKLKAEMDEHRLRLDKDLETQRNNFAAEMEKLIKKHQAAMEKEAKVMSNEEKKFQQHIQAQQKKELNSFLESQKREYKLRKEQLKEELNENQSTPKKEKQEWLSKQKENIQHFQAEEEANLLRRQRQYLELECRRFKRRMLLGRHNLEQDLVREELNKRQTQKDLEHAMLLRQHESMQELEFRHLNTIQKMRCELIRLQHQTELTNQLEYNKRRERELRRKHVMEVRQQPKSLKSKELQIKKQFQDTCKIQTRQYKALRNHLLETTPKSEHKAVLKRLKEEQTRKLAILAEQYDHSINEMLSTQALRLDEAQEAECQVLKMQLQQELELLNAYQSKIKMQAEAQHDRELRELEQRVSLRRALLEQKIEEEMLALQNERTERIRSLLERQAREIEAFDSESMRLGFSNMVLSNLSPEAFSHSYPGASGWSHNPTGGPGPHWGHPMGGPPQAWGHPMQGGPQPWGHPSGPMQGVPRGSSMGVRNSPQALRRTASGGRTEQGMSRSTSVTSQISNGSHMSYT
Here is the method:
as §1, §2

Like-named read-outs stand apart in the source and are kept apart here. Bounds are passed on as bounds.

T2 sequence (P15056 whole entry): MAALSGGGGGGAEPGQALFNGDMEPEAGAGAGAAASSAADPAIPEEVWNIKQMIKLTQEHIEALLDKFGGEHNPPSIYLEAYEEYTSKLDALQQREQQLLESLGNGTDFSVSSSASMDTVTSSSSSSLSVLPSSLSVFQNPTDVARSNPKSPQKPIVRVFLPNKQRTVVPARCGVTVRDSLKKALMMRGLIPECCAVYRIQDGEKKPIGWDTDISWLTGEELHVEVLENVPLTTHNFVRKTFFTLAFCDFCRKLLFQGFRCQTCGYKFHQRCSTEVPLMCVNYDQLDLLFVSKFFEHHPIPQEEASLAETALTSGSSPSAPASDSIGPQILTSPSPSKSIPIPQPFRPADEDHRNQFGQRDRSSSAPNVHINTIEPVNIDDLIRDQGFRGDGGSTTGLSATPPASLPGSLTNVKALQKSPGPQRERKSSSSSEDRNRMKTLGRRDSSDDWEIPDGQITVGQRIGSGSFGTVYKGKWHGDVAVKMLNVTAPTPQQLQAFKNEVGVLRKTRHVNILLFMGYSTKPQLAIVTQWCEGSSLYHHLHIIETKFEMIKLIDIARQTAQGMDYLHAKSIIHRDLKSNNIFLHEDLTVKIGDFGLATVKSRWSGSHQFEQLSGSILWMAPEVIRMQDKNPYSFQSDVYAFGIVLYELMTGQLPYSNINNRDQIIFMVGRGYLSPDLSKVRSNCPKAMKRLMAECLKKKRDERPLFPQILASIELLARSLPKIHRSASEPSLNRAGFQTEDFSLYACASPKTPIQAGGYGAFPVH
T3 sequence (Q9HAZ1 whole entry): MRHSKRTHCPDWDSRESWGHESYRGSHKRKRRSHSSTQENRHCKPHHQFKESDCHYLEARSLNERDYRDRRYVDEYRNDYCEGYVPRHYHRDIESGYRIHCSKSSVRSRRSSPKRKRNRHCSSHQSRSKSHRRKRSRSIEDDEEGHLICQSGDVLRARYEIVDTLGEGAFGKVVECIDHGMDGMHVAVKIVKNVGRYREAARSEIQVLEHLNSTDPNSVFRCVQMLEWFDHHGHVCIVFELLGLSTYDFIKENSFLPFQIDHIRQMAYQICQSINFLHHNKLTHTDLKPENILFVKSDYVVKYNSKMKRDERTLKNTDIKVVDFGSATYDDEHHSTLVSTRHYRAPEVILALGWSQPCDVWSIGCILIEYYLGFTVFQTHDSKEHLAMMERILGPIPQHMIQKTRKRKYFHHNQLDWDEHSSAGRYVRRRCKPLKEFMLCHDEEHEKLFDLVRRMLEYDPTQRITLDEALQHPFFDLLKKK

The compound `Fc1ccc(-c2c(-c3ccncc3)[nH]c3nccnc23)cc1` [Compound 122] came in with a competition at PKC ε of less than 50%. Further, the inhibition at 10 µM on BRAF (BRAF, 10 µM, read-out: % Competition) is 97%; at CLK4 (CLK4, 10 µM, read-out: % Competition), 88%; at EPHA6 (EPHA6, 10 µM, read-out: % Competition), 93%; at TAOK1 (TAOK1, 10 µM, read-out: % Competition) it was 99%.
The compound `CC(O)CNc1cc(-c2[nH]c3cccnc3c2-c2ccc(F)cc2)ccn1` (stereo not drawn) [Compound 140] showed a competition on PKC ε of less than 50%. For the same compound, the inhibition at 10 µM on BRAF (read-out: % Competition) is 76%; at CLK4 (read-out: % Competition), less than 50%; on EPHA6 (read-out: % Competition), less than 50%; on TAOK1 (read-out: % Competition) it was 67%.
Take `Fc1ccc(-c2c(-c3ccncc3)[nH]c3nccnc23)cc1` [RO1155697-000-005]: the inhibition at 10 µM at PKC ε (PRKCE, compound concentration 10 uM, read-out: Percent Competition) is less than 50%; at BRAF (BRAF, compound concentration 10 uM, read-out: Percent Competition), 97%; at CLK4 (CLK4, compound concentration 10 uM, read-out: Percent Competition), 88%; on EPHA6 (EPHA6, compound concentration 10 uM, read-out: Percent Competition), 93%; at TAOK1 (TAOK1, compound concentration 10 uM, read-out: Percent Competition) it was 99%.
